Measurements taken from patent US5527815A, “Carboxymethylidenecycloheptimidazole derivatives, method of manufacturing the same and therapeutic agents containing these compounds” (Kotobuki Seiyaku Co., Ltd., priority 1993, dated 1996).

How the values were obtained:
[1] = molecular target: T1, Angiotensin II receptor (Oryctolagus cuniculus, UniProt P34976); experiment: AII receptor antagonistic activity: inhibition of angiotensin II induced contraction of isolated rabbit thoracic aorta; type: cell-based; conditions: isolated rabbit thoracic aorta contracted by angiotensin II; Van Rossum method; values shown in parenthesis
T1 construct: Rabbit thoracic aorta is isolated, contracted by angiotensin II; from tissue; host or cells: rabbit thoracic aorta
T1 sequence (P34976 1-359): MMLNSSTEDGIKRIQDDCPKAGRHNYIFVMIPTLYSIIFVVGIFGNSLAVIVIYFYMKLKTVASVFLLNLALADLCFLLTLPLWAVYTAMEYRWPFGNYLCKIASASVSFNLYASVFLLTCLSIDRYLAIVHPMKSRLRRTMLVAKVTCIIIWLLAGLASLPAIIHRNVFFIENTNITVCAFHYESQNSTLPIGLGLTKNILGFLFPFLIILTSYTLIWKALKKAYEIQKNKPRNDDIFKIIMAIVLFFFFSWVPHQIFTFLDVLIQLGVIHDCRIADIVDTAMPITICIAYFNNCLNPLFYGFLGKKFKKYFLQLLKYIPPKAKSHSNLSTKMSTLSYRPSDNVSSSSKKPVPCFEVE
Protocol: [AII receptor antagonistic activity]
Angiotensin II receptor activity experiments are carried out according to P. C. Wong et al. (Hypertension 15, 823 (1990)).
Rabbit thoracic aorta is isolated, contracted by angiotensin II. The inhibition of contraction by the compound of formula (1) is expressed as pA2 from dose-response curve (Schild, Brit. J. Pharmacol. 14, 48 (1959)) or expressed as pD2 ' according to the method of J. M. Van Rossum (Arch. Intern. Pharmacodyn., 143, 229 (1963)).

[2] = test system: pressor responses to AII; experiment: Inhibition of AII induced blood pressure increase in rats; type: in vivo; conditions: Rattus norvegicus, po, test compound 0.3 mg/kg orally, AII 30 ng/kg i.v., pressor responses measured at set times
Protocol: [Inhibition of All induced Blood Pressure Increase]
Carotid artery and left femoral vein in rats were cannulated. Next day, the carotid catheter was connected to a pressure transducer for monitoring arterial blood pressure. After the measurement of AII (30 ng/kg, i.v.) pressor responses, test compounds (0.3 mg/kg) were administered orally.
Thereafter, the pressor responses to AII at set times were measured and the inhibition percent was calculated according to the comparison of the pressor responses.

With CCCc1nc2c(n1Cc1ccc(-c3ccccc3-c3nnn[nH]3)cc1)/C(=C/C(=O)OC(C)OC(=O)OC(C)C)CCCC2 (centres unmarked) [Compound 29, 2-Propyl-8-(1-isopropoxycarbonyloxy)ethoxycarbonylmethylidene-1-[(2'-(1H-tetrazole-5-yl)biphenyl-4-yl)methyl]-4,5,6,7-tetrahydro-cycloheptimidazole] the “pD2'” value [1] was 8.18 and the inhibition in vivo at 0.3 mg/kg [2] was at least 70%.
